Where two headings read alike, the source gives them in different places.
Tests used:
[1] = Plasma and liver pharmacokinetics following a single oral dose in monkeys (Example 6); type: in vivo; conditions: cynomolgus monkey; for AUC(0-t) / Cmax / Tmax: Cynomolgus monkeys, single oral dose (mg/kg per Table 6: 1a 10, A 25, B 10, C 10, D 50); for AUC(0-t) / Cmax: normalized to 1 μmol/kg dose; for AUC(0-t): read-out: Plasma prodrug AUC0-24; for Cmax: read-out: Plasma prodrug Cmax; for Tmax: read-out: Plasma prodrug Tmax
Description: […] Untreated animals were used for the collection of control liver. Plasma samples were collected at 1, 2, 4, 6, 8, 12 and 24 hours for all compounds and additionally at 0.5 hour (Compounds 1a, B and D), 3 and 10 hours (Compound C), and 32 and 48 hours post dose for Compound A. Terminal liver samples were collected from three animals per time point at 6, 12 and 24 hours post dose for all compounds and additionally at 2 hours (Compounds 1a, B and D), 3 hours (Compound C) and 32 and 48 hours post dose for Compound A. Liver specimens were collected from all animals immediately after the incision. Freezing forceps stored in liquid nitrogen were used to freeze the liver before excision.
(§1) Plasma samples were analyzed for the prodrug and 2′-methylguanosine (2′-MeG) or relevant nucleoside by LC-MS/MS. For protein precipitation and extraction, each plasma sample (50 μL) was treated with 500 μL of 0.2% formic acid in acetonitrile and 20 μL of an appropriate internal standard working solution. After vortexing and centrifugation, 500 μL of the sample extracts were transferred to a new plate, dried under N2 at ˜28° C. and reconstituted with 75 μL of 0.2% FA in water. The extracts were chromatographed on an Aquasil C18 column using a gradient system of 0.2% formic acid in water and acetonitrile. The analytes were detected and quantified by tandem mass spectrometry in positive ion mode on an MDS Sciex API5000 or an API4000 equipped with a Turbo Ionspray® interface. The calibration range was 0.500 (LLOQ) to 200 ng/mL in mouse plasma. The corresponding range for molar units is 1.68 to 673 pmol/mL.
(§2) Liver samples were analyzed for the active species 2′-methylguanosine triphosphate (2′-MeGTP) or relevant nucleoside triphosphate by LC-MS/MS. The triphosphate levels were assayed by homogenizing (on ice) a known weight of mouse liver with 4× volume of 0.95 M trichloroacetic acid (TCA). Appropriate internal standard solution was added to the homogenate followed by neutralization with 20% ammonium hydroxide solution and addition of 500 μL 1% formic acid. The tissue samples were extracted by weak anion exchange solid phase extraction (SPE). Post extraction, the eluates were evaporated under nitrogen, followed by reconstitution before injection onto the LC-MS/MS system. The samples were chromatographed on a Luna NH2 column using a gradient system of ammonium acetate (1 mM to 20 mM and pH 8.0 to pH 10.0) in water and acetonitrile (70:30). The analyte was detected and quantified by tandem mass spectrometry in positive ion mode on an API4000 equipped with a Turbo Ionspray® interface. The calibration range was 10 to 10000 pmol/mL in mouse liver homogenate (50 to 50000 pmol/g of mouse liver).

[2] = Plasma and liver pharmacokinetics following a single oral dose in mice (Example 6); type: in vivo; conditions: CD-1 mice, oral 25 mg/kg, normalized to 1 μmol/kg dose; 1a average of N = 3
Description: For each compound, a single oral dose at 25 mg/kg in PEG 200 (dose volume 5 mL/kg) was administered to [CD-1] mice. Untreated animals were used for the collection of control liver. Terminal liver and plasma samples were collected from three animals per time point at 4, 12 and 24 hours post dose and additionally at 1 hour post dose in one occasion of Compound 1 (see Example 5). Liver specimens were collected from all animals immediately after the incision. Freezing forceps stored in liquid nitrogen were used to freeze the liver before excision.
as §1, §2

SMILES	AUC(0-t) ([1]; in vivo)	Cmax ([1]; in vivo)	Tmax ([1]; in vivo)	also measured
CC(C)(CO)C(=O)SCCOP(=O)(NCc1ccccc1)OCC1OC(n2cnc3c(=O)[nH]c(N)nc32)C(C)(O)C1O (stereo not drawn) [Compound C, 2′-C-methyl-guanosine, 5′-[2-[(3-hydroxy-2,2-dimethyl-1-oxopropyl)thio]ethyl N-(phenylmethyl)phosphoramidate], reference compound]				Plasma prodrug Tmax ([1]; in vivo, po): 360 min; Nucleoside triphosphate in Liver AUC0-24 [2]: 290 pmol·h/g; Nucleoside triphosphate in Liver Cmax [2]: 19 pmol/g
CCOc1nc(N)nc2c1ncn2[C@@H]1O[C@@H]2COP(=O)(OC(C)C)O[C@H]2[C@@]1(C)F (stereo partly drawn) [Compound A, 6-ethoxy-9-((4aR,6R,7R,7aR)-7-fluoro-2-isopropoxy-7-methyl-2-oxo-tetrahydro-2,5-furo[3,2-d][1,3,2]dioxaphosphinin-6-yl)-9H-purin-2-yl amine]				AUC(0-t) ([1]; plasma): 410 nM·h; Cmax ([1]; plasma): 100 nM; Tmax ([1]; plasma): 120 min
CC(C)OC(=O)[C@H](C)N[P@](=O)(OC[C@H]1O[C@@H](n2ccc(=O)[nH]c2=O)[C@](C)(F)[C@@H]1O)Oc1ccccc1 [Compound D, L-Alanine, N—((P(S),2′R)-2′-deoxy-2′-fluoro-2′-methyl-P-phenyl-5′-uridylyl)-, 1-methylethyl ester]	3.5 nM·h	1.2 nM	30 min	
COc1nc(N)nc2c1ncn2[C@@H]1O[C@H](COP(=O)(N[C@@H](C)C(=O)OCC(C)(C)C)Oc2cccc3ccccc23)[C@@H](O)[C@@]1(C)O (stereo partly drawn) [Compound B, L-Alanine, N-(2′-C-methyl-6-O-methyl-P-1-naphthalenyl-5′-guanylyl)-, 2,2-dimethylpropyl ester]	0.2 nM·h	0.2 nM	30 min	

From US8507460B2, “Substituted 3′,5′-cyclic phosphates of purine nucleotide compounds and pharmaceutical compositions for the treatment of viral infections” (priority 2011, dated 2013)
